For one experiment, the target named is T1, 5-HT1A receptor (Rattus norvegicus, UniProt P19327).
T1 construct: the brains were rapidly chilled and dissected to obtain the hippocampi; from tissue; host or cells: hippocampi of male Sprague-Dawley rats (150-250 g), washed membranes
T1 sequence (P19327 1-422): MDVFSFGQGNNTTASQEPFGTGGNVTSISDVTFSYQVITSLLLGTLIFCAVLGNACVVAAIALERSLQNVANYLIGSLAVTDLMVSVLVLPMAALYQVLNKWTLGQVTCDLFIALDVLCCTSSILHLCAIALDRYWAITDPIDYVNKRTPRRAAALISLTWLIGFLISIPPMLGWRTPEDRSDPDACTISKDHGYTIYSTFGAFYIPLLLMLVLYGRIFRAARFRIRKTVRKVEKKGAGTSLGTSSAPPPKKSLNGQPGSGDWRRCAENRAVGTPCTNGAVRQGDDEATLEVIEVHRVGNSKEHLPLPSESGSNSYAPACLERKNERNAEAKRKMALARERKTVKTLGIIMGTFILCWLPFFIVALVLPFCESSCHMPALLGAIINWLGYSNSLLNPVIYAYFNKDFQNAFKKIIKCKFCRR
The experiment is described as follows: [3H]8-OH-DPAT binding to 5-HT1A sites in hippocampal membranes. Also noted: species or system rat (male Sprague-Dawley). As to conditions: [3H]8-OH-DPAT 1.0 nM, pH 7.4, 37° C. The method, then:
The affinities of the compounds at the central […] described by Taylor, et al., (J. Pharmacol. Exp. Ther. 236:118-125, 1986). Membranes for the binding assay were prepared from male Sprague-Dawley rats (150-250 g). The animals were killed by decapitation, and the brains were rapidly chilled and dissected to obtain the hippocampi. The hippocampi were either prepared that day or stored frozen (-70° C.) until the day of preparation. Membranes were prepared by homogenizing the tissue in 40 volumes of ice-cold Tris-HCl buffer (50 mM, pH 7.4 at 22° C.) using a Techmar Tissumizer (setting 65 for 15 sec), and the homogenate was centrifuged at 39800 xg for 10 min. The resulting pellet then resuspended in the same buffer, and the centrifugation and resuspension process was repeated three additional times to wash the membranes. Between the second and third washes the resuspended membranes were incubated for 10 min at 37° C. to facilitate the removal of endogenous ligands. The final pellet was resuspended in 67 mM Tris-HCl, pH 7.4, to a concentration of 2 mg of tissue original wet weight/200 μl. This homogenate was stored frozen (-70° C.) until the day of the binding assay. […] The assay tubes were incubated for 10 min at 37° C, and the contents were then rapidly filtered through GF/B filters (pretreated with 0.5% polyethylenimine), followed by four one-mL washes with ice cold buffer. The radioactivity trapped by the filters was quantitated by liquid scintillation spectrometry, and specific [^3 H]8-OH-DPAT binding to the 5-HT1A sites was defined as the difference between [^3 H]8-OH-DPAT bound in the presence and absence of 10 μM 5-HT.
The affinity of the particular compound at the 5-HT1A receptor is expressed as IC50 value, i.e., the concentration required to inhibit 50% of the binding. The IC50 values were determined from 12-point competition curves using nonlinear regression (SYSTAT, SYSTAT, INC., Evanston, Ill.).

A further experiment addresses T2, 5-HT1D receptor (Bos taurus, UniProt F1MGM3).
T2 construct: the caudate nuclei were dissected out and frozen at -70° C; tissue Pel-Freeze Biologicals; host or cells: bovine caudate nuclei, washed membranes
Nature of the experiment: [3H]5-HT binding to 5-HT1D sites in caudate nuclei membranes. As to conditions: bovine caudate membranes, [3H]5-HT 1.7-1.9 nM, pH 7.4, 37° C. As to the method:
The affinities of the compounds at the central 5-HT1D binding sites were determined using a modification of the binding assay described by Heuring and Peroutka (J. Neurosci. 7:894-903, 1987). Bovine brains were obtained from Pel-Freeze Biologicals, and the caudate nuclei were dissected out and frozen at -70° C. until the time that the membranes were prepared for the binding assays. At that time the tissues were homogenized in 40 volumes of ice-cold Tris-HCl buffer (50 mM, pH 7.4 at 22° C.) with a Techmar Tissumizer (setting 65 for 15 sec), and the homogenate was centrifuged at 39,800 g for 10 min. The resulting pellet was then resuspended in the same buffer, and the centrifugation and resuspension process was repeated three additional times to wash the membranes. Between the second and third washes the resuspended membranes were incubated for 10 min at 37° C. to facilitate the removal of endogenous 5-HT. the final pellet was resuspended in Tris buffer to a concentration of 25 mg of original tissue wet weight/ml for use in the binding assay. […] The assay tubes were incubated for 10 min at 37° C., and the contents were then rapidly filtered through GF/B filters (pretreated with 0.5% polyethylenimine), followed by four one-mL washes with ice-cold buffer. The radioactivity trapped by the filters was quantitated by liquid scintillation spectrometry, and specific [^3 H]5-HT binding to the 5HT1D sites were defined as the difference between [^3 H]5-HT bound in the presence and absence of 10 μM 5-HT.
The affinities of compounds at the 5-HT1D receptor are expressed as IC50 values, i.e., the concentration required to inhibit 50% of the binding. These values were determined from 12-point competition curves using nonlinear regression (SYSTAT, SYSTAT, Inc. Evanston, Ill.).

The next experiment deals with serotonin. The experiment is described as follows: whole brain serotonin concentration in vivo in rats. Further details: species or system rat (male albino). The following applies: 1 hour. The method, then: (§1) In another experiment certain compounds of the Examples were evaluated to determine ability to affect the 5-hydroxyindoles serotonin and 5-hydroxyindole acetic acid (5HIAA), and serum corticosterone, in vivo. Male albino rats were injected subcutaneously with an aqueous solution of the compound. The pH of the solution was adjusted as necessary to solubilize the compound. A control of the solution without the test compound was similarly injected into a control animal. The rats were decapitated one hour later. Trunk blood was collected and allowed to clot. After centrifugation, serum was stored frozen prior to analysis. The whole brain was removed and frozen on dry ice for storage prior to analysis. The serum corticosterone concentration was measured spectrofluorometrically using the procedure of Solem and Brinck-Johnson, "An Evaluation of a Method for Determination of Free Corticosteroids in Minute Quantities of Mouse Plasma", Scand. J. Clin. Lab. Invest., Suppl. 80, p. 1-14 (1965), incorporated herein by reference. 5-Hydroxyindoleacetic acid (5HIAA) concentration in whole brain was measured by liquid chromatography with electrochemical detection as reported by Fuller and Perry, "Effects of Buspirone and its Metabolite, 1-(2-pyrimidinyl)piperazine, on Brain Monoamines and Their Metabolites in Rats", J. Pharmacol. Exp. Ther., 248, p. 50-56 (1989), incorporated herein by reference.

Another experiment deals with serum corticosterone. Nature of the experiment: serum corticosterone concentration in vivo in rats. Also noted: species or system rat (male albino). The following applies: 1 hour. The method, then: as §1
Setting [1] is: 0.0003 mg/kg s.c., series 0.0003-0.03 mg/kg.
The mark [2] stands for this setting: 0.003 mg/kg s.c., series 0.0003-0.03 mg/kg.
[3] abbreviates: 0.03 mg/kg s.c., series 0.0003-0.03 mg/kg.
Setting [4] is: 0.03 mg/kg s.c., series 0.03-3 mg/kg.
Where [5] appears, read: 0.3 mg/kg s.c., series 0.03-3 mg/kg.
Setting [6] is: 3 mg/kg s.c., series 0.03-3 mg/kg.

T2 sequence (F1MGM3 1-403): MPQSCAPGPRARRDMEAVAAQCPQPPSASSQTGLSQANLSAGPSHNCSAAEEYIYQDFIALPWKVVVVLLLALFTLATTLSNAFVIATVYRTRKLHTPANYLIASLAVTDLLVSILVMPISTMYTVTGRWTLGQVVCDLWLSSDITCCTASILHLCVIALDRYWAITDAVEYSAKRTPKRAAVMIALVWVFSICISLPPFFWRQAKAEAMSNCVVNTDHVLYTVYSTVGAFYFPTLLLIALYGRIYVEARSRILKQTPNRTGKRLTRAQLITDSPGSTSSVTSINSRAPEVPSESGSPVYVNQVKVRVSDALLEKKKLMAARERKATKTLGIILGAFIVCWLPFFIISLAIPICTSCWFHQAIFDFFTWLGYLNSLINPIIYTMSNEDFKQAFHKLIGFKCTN

In general, IC50 refers to the midpoint of a concentration-inhibition curve. Regarding `CCCN(CCC)C1Cc2c[nH]c3ccc(C(C)=O)c(c23)C1` (racemic) [Example 2, (±)-6-Acetyl-4-(di-n-propylamino)-1,3,4,5-tetrahydrobenz[cd]indole], the half-inhibitory concentration (IC50) on 5-HT1A receptor came out at 0.2 nM; at 5-HT1D receptor, 18.4 nM. For the same compound, the Serotonin with serotonin (setting [1]) is 2.71 ± 0.06 nmol/g; in the experiment with serotonin (setting [2]), 2.64 ± 0.11 nmol/g; in the experiment with serotonin (setting [3]), 3.23 ± 0.11 nmol/g; in the experiment on serotonin (setting [4]), 2.60 ± 0.09 nmol/g; in the experiment with serotonin (setting [5]) it was 2.54 ± 0.14 nmol/g; in the experiment on serotonin (setting [6]), 3.25 ± 0.01 nmol/g. For the same compound, the “Serum Corticosterone” value stood at 3.8 ± 0.5 microg./100 ml with serum corticosterone (setting [1]); 3.6 ± 0.1 microg./100 ml in the experiment on serum corticosterone (setting [2]); 36.7 ± 1.2 microg./100 ml in the experiment on serum corticosterone (setting [3]); 33.4 ± 3.7 microg./100 ml in the experiment with serum corticosterone (setting [4]); 39.1 ± 1.1 microg./100 ml with serum corticosterone (setting [5]); 13.8 ± 0.6 microg./100 ml with serum corticosterone (setting [6]).
Consider `CCCN(CCC)[C@H]1Cc2c[nH]c3ccc(C(=O)C(C)C)c(c23)C1` [Example 9, (4R)-(+)-6-(2-methylpropanoyl)-4-(di-n-propylamino)-1,3,4,5-tetrahydrobenz[cd]indole], for which the values for the IC50 on 5-HT1A receptor and at 5-HT1D receptor were 0.16 nM and 1.27 nM, respectively. The Serotonin in the experiment with serotonin (setting [1]) amounted to 2.76 ± 0.10 nmol/g; in the experiment on serotonin (setting [2]) it was 2.94 ± 0.11 nmol/g; in the experiment on serotonin (setting [3]), 3.08 ± 0.11 nmol/g; in the experiment on serotonin (setting [4]), 2.56 ± 0.07 nmol/g; in the experiment with serotonin (setting [5]), 2.94 ± 0.13 nmol/g; in the experiment with serotonin (setting [6]), 2.65 ± 0.07 nmol/g. In addition, the “Serum Corticosterone” value with serum corticosterone (setting [1]) was 4.1 ± 0.5 microg./100 ml; in the experiment with serum corticosterone (setting [2]) it was 6.0 ± 1.3 microg./100 ml; with serum corticosterone (setting [3]) it was 9.1 ± 1.2 microg./100 ml; in the experiment on serum corticosterone (setting [4]), 7.7 ± 1.8 microg./100 ml; in the experiment with serum corticosterone (setting [5]), 40.8 ± 2.0 microg./100 ml; in the experiment on serum corticosterone (setting [6]), 30.8 ± 4.5 microg./100 ml.
As for `CCCN(CCC)[C@H]1Cc2c[nH]c3ccc(C(C)=O)c(c23)C1` [Example 7, (4R)-(+)-6-acetyl-4-(di-n-propylamino)-1,3,4,5-tetrahydrobenz[cd]indole], the IC50 on 5-HT1A receptor came out at 0.22 nM; on 5-HT1D receptor, 7.46 nM. The Serotonin came out at 2.68 ± 0.11 nmol/g with serotonin (setting [1]); 2.74 ± 0.07 nmol/g with serotonin (setting [2]); 3.00 ± 0.10 nmol/g with serotonin (setting [3]); 2.47 ± 0.07 nmol/g with serotonin (setting [4]); 2.59 ± 0.14 nmol/g with serotonin (setting [5]). Moreover, the “Serum Corticosterone” value worked out at 4.1 ± 0.6 microg./100 ml with serum corticosterone (setting [1]); 3.6 ± 0.1 microg./100 ml with serum corticosterone (setting [2]); 21.8 ± 2.1 microg./100 ml in the experiment with serum corticosterone (setting [3]); 41.8 ± 1.7 microg./100 ml in the experiment with serum corticosterone (setting [4]); 41.5 ± 5.3 microg./100 ml in the experiment on serum corticosterone (setting [5]).
In the case of `CCCN(CCC)[C@@H]1Cc2c[nH]c3ccc(C(C)=O)c(c23)C1` [Example 8, (4S)-(-)-6-acetyl-4-(di-n-propylamino)-1,3,4,5-tetrahydrobenz[cd]indole], the IC50 at 5-HT1A receptor amounted to 0.12 nM; on 5-HT1D receptor, 96.4 nM. The Serotonin in the experiment with serotonin (setting [1]) was 2.91 ± 0.12 nmol/g; in the experiment with serotonin (setting [2]) it was 2.65 ± 0.13 nmol/g; with serotonin (setting [3]), 3.30 ± 0.09 nmol/g; in the experiment with serotonin (setting [4]), 2.58 ± 0.15 nmol/g; in the experiment on serotonin (setting [5]), 2.78 ± 0.13 nmol/g; in the experiment with serotonin (setting [6]), 2.63 ± 0.12 nmol/g. For the same compound, the “Serum Corticosterone” value is reported as 3.4 ± 0.2 microg./100 ml in the experiment with serum corticosterone (setting [1]); 3.8 ± 0.2 microg./100 ml in the experiment with serum corticosterone (setting [2]); 40.3 ± 1.8 microg./100 ml in the experiment with serum corticosterone (setting [3]); 47.0 ± 2.4 microg./100 ml in the experiment with serum corticosterone (setting [4]); 47.3 ± 2.3 microg./100 ml with serum corticosterone (setting [5]); 45.4 ± 1.3 microg./100 ml with serum corticosterone (setting [6]).

(Values after patent publication US5229409A, “6-substituted-tetrahydrobenz[cd]indoles” (Eli Lilly and Company, priority 1991, dated 1993).)
